Measurements published in patent US20260256962A1, “PRODRUGS FOR COMPOUNDS SPECIFIC TO GRANZYME B AND USES THEREOF” (CYTOSITE BIOPHARMA INC., priority 2021, published 2026).

Tests used:
[1] = In vivo conversion of [^18F] granzyme B prodrugs to active form, radioactive metabolite screening of blood by radio-HPLC; set-up: species or system male CD-1 mice; details: for 5 min (% active form in blood) / 15 min (% active form in blood): male CD-1 mice, tail vein injection, radio-HPLC; for 5 min (% active form in blood): blood 5 minutes post-injection; for 15 min (% active form in blood): blood 15 minutes post-injection; for conversion to the active form: in vivo, mouse plasma 5 minutes after administration (FIGS. 4C, 5C)
Excerpt: In vivo conversion of prodrugs was monitored by radioactive metabolite screening studies performed by injection of [^18F] granzyme B tracers in male CD-1 mice followed by analysis of extracted blood samples by radiometric HPLC. Results are reported as percent active form present in blood (Table 11).
Briefly, male CD-1 mice were anesthetized prior to dosing with approximately 250 μCi [^18F] granzyme B tracer via tail vein injection (n=3 mice/timepoint). For blood collection, mice were sacrificed following cardiac exsanguination with a syringe pre-rinsed with sodium heparin at 5 and 15 minutes post-injection and samples were prepared for analysis via radio-HPLC.
Blood samples were centrifuged at 1500 RCF for 5 minutes to allow for separation of plasma. Plasma samples were mixed with two volumes of methanol, vortexed for 30 seconds, and then centrifuged at 1500 RCF for 2 minutes. The supernatant was separated from the pellet and diluted 1:4 with PBS buffer pH 7.4 or water prior to analysis by HPLC.
Samples were then analyzed on an Agilent 1290 series UPLC UV coupled with a BGO coincidence detector. The HPLC method utilized 2) Phenomenex Monolithic C18 (100×4.6 mm); 100-200 μL injection volume; flow-rate: 1.2 mL/min; solvent for A: 20 mM ammonium acetate in water; solvent for B: 100% methanol; gradient: initial hold at 5% B hold for 1 min, 5% to 40% in 7 min, hold 40% B for 2 min, increase from 40% to 95% B in 1 min, hold 95% B for 2 min, and then return to 5% B to reequilibrate.

granzyme B = biological target: T1, granzyme B (Homo sapiens, UniProt P10144); experiment: In vivo PET/CT imaging of ^18F-granzyme B tracers in Matrigel mouse model of active and pro-form granzyme B; set-up: species or system female nude athymic mice; details: nude athymic mice, i.v. radiotracer, static PET 75 minutes post-injection
T1 construct: In Vivo Imaging of ^18F-Granzyme B Tracers in a Matrigel Mouse Model of Active and Pro-Form Granzyme B; purchased Enzo Life Sciences; host or cells: purified from human lymphocytes
T1 sequence (P10144 21-247): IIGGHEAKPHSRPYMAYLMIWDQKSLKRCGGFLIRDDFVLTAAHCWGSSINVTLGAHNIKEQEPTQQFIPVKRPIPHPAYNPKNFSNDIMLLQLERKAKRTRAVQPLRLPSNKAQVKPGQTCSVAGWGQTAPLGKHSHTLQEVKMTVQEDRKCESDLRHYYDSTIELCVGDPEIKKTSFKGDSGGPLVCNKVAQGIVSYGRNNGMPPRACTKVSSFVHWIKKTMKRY
Protocol: Female nude athymic (5-6 weeks, 15-30 g) mice were purchased from Jackson Laboratories. Both granzyme B (Human lymphocytes, Enzo Life Sciences) and inactivated human pro-form granzyme B (R&D Systems) were also commercially purchased. […] Each granzyme B enzyme were then brought up to a final concentration of 0.05 μg/ul using phosphate buffered saline (GE, Hyclone). Matrigel (65 μl, Corning) was mixed with 15 μl of 0.75 μg of each granzyme B enzyme (granzyme B and pro-form granzyme B) within each Eppendorf tube. The mice were then anesthetized with 2.5-3% isoflurane mixed with oxygen. Approximately 60-80 μl of granzyme B/Matrigel or the pro-form granzyme B/Matrigel were then injected using a 28-gauge×0.5-inch insulin syringe (Terumo) to form implants on the right and left shoulder flanks of the mice. […] After the radiotracer injection, the catheter was removed and measured for any remaining residual radioactivity. […] PET signal in the granzyme B implants were quantified by manually drawing regions of interest (ROIs) over the Matrigel implants based on the fused PET/CT images and the corresponding activity values were determined with VivoQuant (Invicro, Massachusetts). […] Target to background ratios (TBR's) were then calculated by dividing the granzyme B % ID/g value by the pro-form granzyme B % ID/g value.

Structure (SMILES) | 5 min (% active form in blood) [1] | 15 min (% active form in blood) [1] | differentiation in Matrigel (granzyme B vs pro-form granzyme B implants) (granzyme B) | conversion to the active form [1]
CCO[C@@H]1OC(=O)C[C@@H]1NC(=O)[C@@H]1Cc2cccc3c2N1C(=O)[C@@H](NC(=O)[C@@H](NC(=O)CCNC(=O)CCNC(=O)[C@@H](CCC(=O)O)NC(=O)CN1CCC(CN2CCN4CCN(CC2)CC(=O)[O][Al]([F])[O]C(=O)C4)CC1)[C@@H](C)CC)CC3 [[^18F] 5-Al] | 98% | 100% | – | –
CC[C@H](C)[C@H](NC(=O)CCNC(=O)CCNC(=O)CN(CC(=O)O)C(=O)CN1CCC(CN2CCN3CCN(CC2)CC(=O)[O][Al]([F])[O]C(=O)C3)CC1)C(=O)N[C@H]1CCc2cccc3c2N(C1=O)[C@H](C(=O)N[C@H]1CC(=O)O[C@H]1OC)C3 [[^18F] 9-Al] | 90% | 100% | – | –
CC[C@H](C)[C@H](NC(=O)CCNC(=O)CCNC(=O)[C@@H](CCC(=O)O)NC(=O)CN1CCC(CN2CCN3CCN(CC2)CC(=O)[O][Al]([F])[O]C(=O)C3)CC1)C(=O)N[C@H]1CCc2cccc3c2N(C1=O)[C@H](C(=O)N[C@H]1CC(=O)O[C@H]1OC)C3 [[^18F] 4-Al] | 92% | 94% | good differentiation in Matrigel | rapid conversion to the active form
CC[C@H](C)[C@H](NC(=O)COCCNC(=O)[C@@H](CCC(=O)O)NC(=O)[C@@H](CCC(=O)O)NC(=O)CN1CCC(CN2CCN3CCN(CC2)CC(=O)[O][Al]([F])[O]C(=O)C3)CC1)C(=O)N[C@H]1CCc2cccc3c2N(C1=O)[C@H](C(=O)N[C@H]1CC(=O)O[C@H]1OC)C3 [[^18F] 7-Al] | 69% | 78% | – | –
CC[C@H](C)[C@H](NC(=O)CCNC(=O)CCNC(=O)[C@@H](CCC(=O)O)NC(=O)CN1CCC(CN2CCN3CCN(CC2)CC(=O)[O][Al]([F])[O]C(=O)C3)CC1)C(=O)N[C@H]1CCc2cccc3c2N(C1=O)[C@H](C(=O)N[C@H]1CC(=O)O[C@@H]1OC)C3 [[^18F] 3-Al] | 13% | 17% | poor differentiation in Matrigel | slow conversion to the active form
CC[C@H](C)[C@H](NC(=O)COCCNC(=O)[C@@H](CCC(=O)O)NC(=O)[C@@H](CCC(=O)O)NC(=O)CN1CCC(CN2CCN3CCN(CC2)CC(=O)[O][Al]([F])[O]C(=O)C3)CC1)C(=O)N[C@H]1CCc2cccc3c2N(C1=O)[C@H](C(=O)N[C@H]1CC(=O)O[C@@H]1OC)C3 [[^18F] 6-Al] | 11% | 16% | – | –
CCO[C@@H]1OC(=O)C[C@@H]1NC(=O)[C@@H]1Cc2cccc3c2N1C(=O)[C@@H](NC(=O)[C@@H](NC(=O)COCCNC(=O)[C@@H](CCC(=O)O)NC(=O)[C@@H](CCC(=O)O)NC(=O)CN1CCC(CN2CCN4CCN(CC2)CC(=O)[O][Al]([F])[O]C(=O)C4)CC1)[C@@H](C)CC)CC3 [[^18F] 8-Al] | 86% | 100% | – | –
